Patent US20260125397A1, “MK2 DEGRADERS AND USES THEREOF” (Kymera Therapeutics, Inc., priority 2023, published 2026)

What was measured:
[1] = target: T1, MK2 (Homo sapiens, UniProt P49137); assay: MK2 degradation in human THP-1 monocytic cells (MSD, 24 h); type: cell-based; design: endogenous in cells; conditions: THP-1 cells; for DC50: read-out: MK2 MSD THP-1 degradation 24 h GMean External Abs DC50
Procedure: The human monocytic cancer cell line THP-1 (ATCC (TIB-202)) was cultured in 96 well plates (Coming 3894) at a density of 200,000 cells per well in 100 microlitres in complete growth medium of RPMI 1640 (Gibco) pus 10% fetal Bovine Serum (Coming) and Penicillin/Streptomycin (SolarBio) at 37 degrees Celsius and 5% CO2. A serial dilution of each compound (usually 3 to 5 fold serial dilutions up to 10 separate concentration points) was added to individual wells from a 10 millimolar stock solution, at a background concentration of 0.1% DMSO and the cells were shaken at 600 rpm for 5 minutes and then were cultured for 24 hours at 37 degrees Celsius and 5% carbon dioxide. Separately, a custom MSD (MesoScaleDiscovery, L15XA-3) plate for detection of human MK2 was prepared by coating the plate with the commercial AbCarn ab247272 reagent in 1× Phosphate Buffered Saline at 40 microlitres per well and incubated at 4 degrees Celsius overnight. The next day, the MSD plate was washed with 150 microlitres of Tween buffered saline, blocked with MSD blocking buffer (3% BlockerA from MSD), and washed again.
(§1) The cell plate was centrifuged at 3,200 g for 5 minutes and the supernatant was discarded and 100 microlitres of RIPA lysis buffer (containing proteinase inhibitors, Boston BioProducts BP-115D) was added and the plate was sealed and shaken on ice for 20 minutes. The plate was centrifuged as before and 70 microlitres of sample lysate was added to the MSD plates and they were shaken at room temperature for I hour at 600 rpm. The MSD plate was washed 3 times as before and then the primary MK2 detection antibody (Santa Cruz sc-100393) was added at a final concentration of 1 microgram per ml at 25 microlitres per well and shaken at room temperature for 1 hour at 600 rpm.
(§2) After 3 more washes, the secondary detection antibody (SULFO-Tag anti rabbit antibody R32AB-5) was added at a final concentration of 1 microgram per ml at 25 microlitres per well and shaken at room temperature for 1 hour at 600 rpm. After 3 more washes, the 1X MSD (diluted from 5X concentrate with water) reading buffer was added at 150 microlitres per well and read on the MSD instrument Meso Sector S 600.
(§3) The inhibition/degradation curves and DC50 values were plotted and calculated using XL Fit (version v5.3.1.3) using equation 201 and a 4 parameter logistic model whereby fit=(A+((B−A)/(1+((x/C)D))) where A is the Bottom and B is the Top and C is the IC50and D is the slope and high C is the signal for the DMSO treated cells and Low C is the signal is the signal for the lysis buffer.

[2] = target: T1, MK2; assay: MK2 degradation in human SW1353 cells (MSD, 24 h); type: cell-based; design: endogenous in cells; host or cells: SW-1353 (ATCC HTB-94); conditions: for Dmax: read-out: MK2 MSD SW 1353 24 h Dmax %; for DC50: read-out: MK2 MSD SW1353 degradation 24 h GMean External Abs DC50
Procedure: The human chondrocyte cancer cell line SW-1353 (ATCC(HTB-94)) was cultured in 96 well plates (Coming 3894) at a density of 200,000 cells per well in 100 microlitres in complete growth medium of Leibovitz's L-15 Medium (Gibco) pus 10% fetal Bovine Serum (Coming) and Penicillin/Streptomycin (SolarBio) at 37 degrees Celsius. A serial dilution of each compound (usually 3 to 5 fold serial dilutions up to 10 separate concentration points) was added to individual wells from a 10 millimolar stock solution, at a background concentration of 0.10% DMSO and the cells were shaken at 600 rpm for 5 minutes and then were cultured for 24 hours at 37 degrees Celsius. Separately, a custom MSD (MesoScaleDiscovery, L15XA-3) plate for detection of human MK2 was prepared by coating the plate with the commercial AbCam ab247272 reagent in 1× Phosphate Buffered Saline at 40 microlitres per well and incubated at 4 degrees Celsius overnight. The next day, the MSD plate was washed with 150 microlitres of Tween buffered saline, blocked with MSD blocking buffer (3% Blocker A from MSD), and washed again.
as §1, with “for 1” for “for I”
as §2
as §3, with “IC50 and” for “IC50and”

T1 sequence (P49137 whole entry): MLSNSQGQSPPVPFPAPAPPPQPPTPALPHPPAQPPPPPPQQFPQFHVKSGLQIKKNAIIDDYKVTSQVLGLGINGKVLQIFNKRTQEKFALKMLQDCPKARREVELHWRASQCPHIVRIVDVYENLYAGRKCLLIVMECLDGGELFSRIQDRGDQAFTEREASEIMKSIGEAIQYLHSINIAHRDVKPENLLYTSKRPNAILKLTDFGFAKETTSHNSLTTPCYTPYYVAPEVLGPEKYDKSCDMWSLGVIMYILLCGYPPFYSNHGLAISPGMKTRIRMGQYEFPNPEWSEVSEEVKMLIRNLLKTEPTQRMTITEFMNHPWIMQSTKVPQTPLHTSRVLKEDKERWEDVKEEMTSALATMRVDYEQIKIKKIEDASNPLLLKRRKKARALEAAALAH

Compound	Dmax [1] [%]	DC50 [1] [nM]	Dmax [2] [%]	DC50 [2] [nM]
Cn1c(=O)n(C2CCC(=O)NC2=O)c2ccc(N3CC(CN4CCN(c5ccc(-c6nccc(-c7cc8c([nH]7)C(C)(C)CNC8=O)n6)cc5)CC4)C3)cc21 (stereo not drawn) [I-22]	> 75	< 1	> 75	< 1
Cn1c(=O)n(C2CCC(=O)NC2=O)c2cccc(OCCN3CCN(c4ccc(-c5nccc(-c6cc7c([nH]6)C6(CC6)CNC7=O)n5)c(F)c4)CC3)c21 (stereo not drawn) [I-24]	> 75	< 1	> 75	1 to 10
Cn1c(=O)n(C2CCC(=O)NC2=O)c2ccc(N3CC(CN4CCN(c5ccc(-c6cc(-c7cc8c(o7)C7(CC7)CNC8=O)ccn6)cc5)CC4)C3)cc21 (stereo not drawn) [I-28]	> 75	< 1	> 75	< 1
Cn1c(=O)n(C2CCC(=O)NC2=O)c2ccc(N3CC(CN4CCN(c5ccc(-c6cc(-c7cc8c(o7)C7(CC7)CNC8=O)ncn6)cc5)CC4)C3)cc21 (stereo not drawn) [I-29]	> 50	> 100	> 50	> 100
Cn1c(=O)n(C2CCC(=O)NC2=O)c2ccc(N3CC(CN4CCN(c5ccc(-c6cc(-c7cc8c([nH]7)C7(CC7)CNC8=O)ncn6)cc5)CC4)C3)cc21 (stereo not drawn) [I-30]	50 to 75	< 1	50 to 75	< 1
O=C1CCN(c2cncc3c(CCN4CCN(c5ccc(-c6nccc(-c7cc8c([nH]7)C7(CCC7)CNC8=O)n6)c(F)c5)CC4)cccc23)C(=O)N1 [I-31]	> 75	< 1	> 75	1 to 10
Cn1c(=O)n(C2CCC(=O)NC2=O)c2cccc(-n3ccc(N4CCN(c5ccc(-c6nccc(-c7cc8c([nH]7)C7(CCCC7)CNC8=O)n6)cc5)CC4)c3)c21 (stereo not drawn) [I-32]	> 50	> 100	> 50	> 100
Cn1c(=O)n(C2CCC(=O)NC2=O)c2ccc(N3CC(CN4CCC(N5CCN(c6nccc(-c7cc8c([nH]7)C7(CC7)CNC8=O)n6)CC5)CC4)C3)cc21 (stereo not drawn) [I-34]	> 50	> 100	> 50	> 100

Now from value to compound:

Dmax [1] [%]	DC50 [1] [nM]	Dmax [2] [%]	DC50 [2] [nM]	Compound
> 75	1 to 10	> 75	1 to 10	C[C@@H]1CNc2c(sc3ccc4nc(N5CCN(CC6CCC7(CC6)CN(c6ccc(NC8CCC(=O)NC8=O)cc6F)C7)CC5)ccc4c23)C(=O)N1 (stereo partly drawn) [I-20]
> 75	< 1	> 75	< 1	C[C@@H]1CNc2c(sc3ccc4nc(N5CC[C@H](N(C)C6CC7(CCN(c8ccc9c(c8)n(C)c(=O)n9C8CCC(=O)NC8=O)CC7)C6)C(F)(F)C5)ccc4c23)C(=O)N1 (stereo partly drawn) [I-21]
> 75	< 1	> 75	< 1	C[C@@H]1CNc2c(sc3ccc4nc(N5CCN(CC6CCC7(CC6)CN(c6ccc8c(N9CCC(=O)NC9=O)cncc8c6)C7)CC5)ccc4c23)C(=O)N1 [I-23]
> 75	< 1	> 75	1 to 10	C[C@@H]1CNc2c(sc3ccc4nc(N5CCN(C6CC7(CCN(c8ccc(NC9CCC(=O)NC9=O)cc8F)CC7)C6)CC5)ccc4c23)C(=O)N1 (stereo partly drawn) [I-25]
> 75	< 1	> 75	1 to 10	C[C@@H]1CNc2c(sc3ccc4nc(N5CCN(CCC6CCC7(CC6)CCN(C(=O)c6ccc(Cl)c(N8CCC(=O)NC8=O)c6)CC7)CC5)ccc4c23)C(=O)N1 [I-26]
> 75	< 1	> 75	1 to 10	C[C@@H]1CNc2c(sc3ccc4nc(N5CCC(N(CC(F)(F)F)C6CC7(CCN(c8ccc9c(c8)n(C)c(=O)n9C8CCC(=O)NC8=O)CC7)C6)CC5)ccc4c23)C(=O)N1 (stereo partly drawn) [I-27]
50 to 75	1 to 10	50 to 75	1 to 10	Cn1c(=O)n(C2CCC(=O)NC2=O)c2cccc(N3CCC(N4CCN(c5ccc(-c6nccc(-c7cc8c([nH]7)C7(CCCC7)CNC8=O)n6)cc5)CC4)C3)c21 (stereo not drawn) [I-33]
